Laboratory results as given in publication PMC9207808 (ACS Chemical Biology, 2022).
Residues, ends and D or L forms follow the SMILES beside them.

Assays:
DocSTm [1] = experiment: Dot blot phosphorylation assay (EF-Tu phosphorylation by Doc); type: biochemical, S. Typhimurium; conditions: DocSTm 1 μM, EF-TuSTm 3 μM, ATP 1 mM; for inhibition of EF-TuSTm phosphorylation by DocSTm (in words): α-pThr, inhibitor 10 μM to 5 nM (3-fold dilutions), 16 h at RT
Outline: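 Doc-mediated phosphorylation of EF-Tu was run for 16 h at RT, then the samples were spotted on nitrocellulose. Phospho-EF-Tu was detected with a rabbit monoclonal anti-phosphothreonine antibody and an HRP anti-rabbit secondary, read by chemiluminescence.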

DocSTm [2] = experiment: Differential scanning fluorimetry (thermal stabilisation of Doc); type: binding, S. Typhimurium; conditions: for melting temperature shift ΔTm: DSF, DocSTm 5 μM, analyte 50 μM, Tm with analyte minus Tm of free DocSTm (42.9 ± 0.9 °C), SYPRO Orange, 20 mM K2HPO4, 50 mM (NH4)2SO4, pH 8.0, triplicate; for Average Tm / Tm: DocSTm 5 µM + 50 µM binder; for Average Tm: average of 3 replicates
Outline: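 Thermal shift of 5 μM Doc in 20 mM K2HPO4, 50 mM (NH4)2SO4, pH 8.0 with 3× SYPRO Orange, heated from 25 to 95 °C in a qPCR instrument, in triplicate. Melting temperatures from Boltzmann sigmoid fits of the transition region.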

[3] = tested on: S. Typhimurium (14028) Δphd-doc::Km strains coexpressing DocSTm; experiment: Growth rescue experiment in S. Typhimurium; type: cell-based; conditions: coexpression of DocSTm (pBAD33, arabinose) and Phd construct (pCA24N, basal expression); OD600 over time, M9 minimal medium; average of three independent experiments
Description: The cotransformations above were also performed with an empty pBAD33 plasmid, as a control for the absence of DocSTm expression.
For the growth rescue experiment, overnight (1% tryptone, 0.5% yeast extract, 0.5% NaCl, 1% glucose, 100 μg/mL of carbenicillin, and 34 μg/mL of chloramphenicol) cultures of the generated S. Typhimurium strains were diluted to an OD600 of approximately 0.006 into fresh M9 minimal medium supplemented with 0.5% or 1% arabinose, 0.4% glycerol, 0.4% casamino acids, 100 μg/mL of carbenicillin, and 34 μg/mL of chloramphenicol. Cell growth at a given time was monitored at OD600 with a Genesys 140 Visible Spectrophotometer (Thermo Scientific).

DocSTm [4] = experiment: Surface plasmon resonance binding to immobilised Doc; design: species or system S. Typhimurium; conditions: for koff × 10^-6 / kon × 10^6: 1:1 kinetic fit, mean ± SD of at least 3 replicates; for kon × 10^6: single-cycle kinetics (multicycle for PhdSTm1-73); for Half-life of the complex: t1/2 = ln2 / koff; for gain of affinity compared to peptide 1: SPR Kd relative to peptide 1
Outline: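 Doc captured on an NTA chip at 22 °C in 10 mM HEPES, 500 mM NaCl, 50 μM EDTA, 0.005% TWEEN 20, pH 8.0. Analytes injected as 80 s pulses at 30 μL/min in multicycle or single-cycle kinetics.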

[5] = SPR, kinetic fit, KD calculated from mean koff and kon, SD propagated, 22 °C, pH 8.0

| Compound | inhibition of EF-TuSTm phosphorylation by DocSTm (in words) (DocSTm [1]) | melting temperature shift ΔTm (DocSTm [2]) | Average Tm (DocSTm [2]) | Tm (DocSTm [2]; replicate 1) | Tm (DocSTm [2]; replicate 2) | Tm (DocSTm [2]; replicate 3) | rescue of Salmonella growth from DocSTm-induced growth inhibition (in words) [3] | Kd (DocSTm [4]; SPR kinetic fit, replicate 1) | Kd (DocSTm [4]; SPR kinetic fit, replicate 2) | Kd (DocSTm [4]; SPR kinetic fit, replicate 3) | koff × 10^-6 (DocSTm [4]; SPR, 22 °C, pH 8.0) | kon × 10^6 (DocSTm [4]; SPR, 22 °C, pH 8.0) | Half-life of the complex (DocSTm [4]) | improvement in koff compared with 1 (DocSTm [4]; SPR) | improvement in kon compared with 1 (DocSTm [4]; SPR) | gain of affinity compared to peptide 1 (DocSTm [4]) | Kd (DocSTm [4]; [5]) | also measured |
| --- | --- | --- | --- | --- | --- | --- | --- | --- | --- | --- | --- | --- | --- | --- | --- | --- | --- | --- |
| CC[C@H](C)[C@H](NC(=O)[C@H](C)NC(=O)[C@H](C)NC(=O)[C@H](Cc1ccccc1)NC(=O)[C@H](CCC(=O)O)NC(=O)[C@H](CC(=O)O)NC(=O)[C@H](CC(=O)O)NC(=O)[C@H](CCSC)NC(=O)[C@H](Cc1c[nH]c2ccccc12)NC(C)=O)C(=O)N[C@@H](CCSC)C(=O)N[C@@H](C)C(=O)N[C@H](C(=O)N[C@@H](Cc1c[nH]cn1)C(=O)NCC(=O)N[C@@H](CC(N)=O)C(=O)N[C@@H](CCC(=O)O)C(=O)N[C@@H](CC(C)C)C(=O)N[C@@H](CCCNC(=N)N)C(=O)N[C@@H](CCC(=O)O)C(=O)N[C@@H](CC(C)C)C(=O)N[C@@H](C)C(=O)N[C@@H](CC(=O)O)C(=O)N[C@@H](CCCCN)C(=O)O)C(C)C [peptide 1] (Ac-WMDDEFAAIMAVHGNELRELADK-OH) | comparable inhibition of the kinase activity | 28.8 ± 0.9 °C | 71.7 ± 0.1 °C | 71.8 °C | 71.5 °C | 71.6 °C | only rescued growth after a delay and longer incubation times of 16–18 h | 0.0734 nM | 0.0838 nM | 0.0591 nM | 91 ± 11 ×10^-6 s-1 | 1.250 ± 0.259 ×10^6 M-1 s-1 | 2.1 ± 0.3 h |  |  |  |  | concentration at which EF-TuSTm phosphorylation is fully inhibited (DocSTm [1]): ≥ 1 µM; Kd (DocSTm [4]; SPR kinetic fit, replicate 4): 0.0819 nM |
| CC[C@H](C)[C@H](NC(=O)[C@H](C)NC(=O)[C@H](C)NC(=O)[C@H](Cc1ccccc1)NC(=O)[C@H](CCC(=O)O)NC(=O)[C@H](CC(=O)O)NC(=O)[C@H](C)NC(=O)[C@H](CCSC)NC(=O)[C@H](Cc1c[nH]c2ccccc12)NC(C)=O)C(=O)N[C@@H](CCSC)C(=O)N[C@@H](C)C(=O)N[C@H](C(=O)N[C@@H](Cc1c[nH]cn1)C(=O)NCC(=O)N[C@@H](CC(N)=O)C(=O)N[C@@H](CCC(=O)O)C(=O)N[C@@H](CC(C)C)C(=O)N[C@@H](CCCNC(=N)N)C(=O)N[C@@H](CCC(=O)O)C(=O)N[C@@H](CC(C)C)C(=O)N[C@@H](C)C(=O)N[C@@H](CC(=O)O)C(=O)N[C@@H](CCCCN)C(=O)O)C(C)C [peptide 3] (Ac-WMADEFAAIMAVHGNELRELADK-OH; C-terminus assumed) | inhibited DocSTm at similar concentrations to peptide 1 | 25.6 ± 0.9 °C | 68.5 ± 0.3 °C | 68.3 °C | 68.4 °C | 68.8 °C | a faster recovery was achieved | 0.0121 nM | 0.0166 nM | 0.00992 nM | 65 ± 18 ×10^-6 s-1 | 5.073 ± 0.369 ×10^6 M-1 s-1 | 2.9 ± 0.8 h | ~1.5 fold | ~4 fold | greater than 5 fold | 0.013 nM |  |
| CC[C@H](C)[C@H](NC(=O)[C@H](C)NC(=O)[C@H](C)NC(=O)[C@H](Cc1ccccc1)NC(=O)[C@H](CCC(=O)O)NC(=O)[C@H](C)NC(=O)[C@H](CC(=O)O)NC(=O)[C@H](CCSC)NC(=O)[C@H](Cc1c[nH]c2ccccc12)NC(C)=O)C(=O)N[C@@H](CCSC)C(=O)N[C@@H](C)C(=O)N[C@H](C(=O)N[C@@H](Cc1c[nH]cn1)C(=O)NCC(=O)N[C@@H](CC(N)=O)C(=O)N[C@@H](CCC(=O)O)C(=O)N[C@@H](CC(C)C)C(=O)N[C@@H](CCCNC(=N)N)C(=O)N[C@@H](CCC(=O)O)C(=O)N[C@@H](CC(C)C)C(=O)N[C@@H](C)C(=O)N[C@@H](CC(=O)O)C(=O)N[C@@H](CCCCN)C(=O)O)C(C)C [peptide 4] (Ac-WMDAEFAAIMAVHGNELRELADK-OH; C-terminus assumed) | inhibited DocSTm at similar concentrations to peptide 1 | 26.2 ± 0.9 °C | 69.1 ± 0.2 °C | 69.0 °C | 69.3 °C | 69.1 °C | restored bacterial growth following similar kinetics as the wild-type sequence | 0.0128 nM | 0.0166 nM | 0.0101 nM | 62 ± 17 ×10^-6 s-1 | 4.733 ± 0.155 ×10^6 M-1 s-1 | 3.1 ± 0.8 h | ~1.5 fold | ~4 fold | greater than 5 fold | 0.013 nM |  |
| CC[C@H](C)[C@H](NC(=O)[C@H](C)NC(=O)[C@H](C)NC(=O)[C@H](C)NC(=O)[C@H](CCC(=O)O)NC(=O)[C@H](CC(=O)O)NC(=O)[C@H](CC(=O)O)NC(=O)[C@H](CCSC)NC(=O)[C@H](Cc1c[nH]c2ccccc12)NC(C)=O)C(=O)N[C@@H](CCSC)C(=O)N[C@@H](C)C(=O)N[C@H](C(=O)N[C@@H](Cc1c[nH]cn1)C(=O)NCC(=O)N[C@@H](CC(N)=O)C(=O)N[C@@H](CCC(=O)O)C(=O)N[C@@H](CC(C)C)C(=O)N[C@@H](CCCNC(=N)N)C(=O)N[C@@H](CCC(=O)O)C(=O)N[C@@H](CC(C)C)C(=O)N[C@@H](C)C(=O)N[C@@H](CC(=O)O)C(=O)N[C@@H](CCCCN)C(=O)O)C(C)C [peptide 6] (Ac-WMDDEAAAIMAVHGNELRELADK-OH; C-terminus assumed) | among the poorest inhibitors of EF-TuSTm phosphorylation | 21.1 ± 1.0 °C | 64.0 ± 0.5 °C | 64.5 °C | 64.1 °C | 63.5 °C | not able to counteract DocSTm-induced growth inhibition of Salmonella | 1 nM | 0.919 nM | 0.745 nM | 843 ± 231 ×10^-6 s-1 | 0.989 ± 0.434 ×10^6 M-1 s-1 | 0.23 ± 0.06 h |  |  |  | 0.852 nM | affinity to DocSTm greater than that of peptides 7, 10 and 14 (DocSTm [4]; SPR Kd ratio): at least 12 fold; fold decrease in affinity (given as decrease/loss in Kd) compared with peptide 1 (DocSTm [4]; SPR Kd relative to wild-type peptide 1): 8- to 30 fold |
| PhdSTm: full-length wild-type Phd antitoxin protein of S. Typhimurium | no phosphorylation was detected |  |  |  |  |  | prevented Doc-induced growth inhibition |  |  |  |  |  |  |  |  |  |  | Half-life of the complex (DocSTm [4]; listed as PhdSTm1-73): 6.7 ± 1.4 h |
